39 molecules from ChEMBL document CHEMBL5046250, “Discovery of Sortase A covalent inhibitors with benzofuranene cyanide structures as potential antibacterial agents against Staphylococcus aureus” (Eur J Med Chem, 2022) can be followed below.

pIC50: −log10 of the molar value. Calls of active or inactive are those of the source. No cut-off for these calls is given here. A value given as a limit tells only on which side of the number the result lay.

What is called pIC50 is the negative decadic logarithm of the IC50, by convention in mol/L. The term inhibition denotes how much of the control response was suppressed.

Assay [1] is described as follows: Inhibition of Staphylococcus aureus sortase A using Abz-LPATG-Dap(DNP)-NH2 as substrate preincubated for 1 hr followed by substrate addition by FRET assay.
Assay [2] deals with Staphylococcus aureus. In words: Antibiofilm activity against Staphylococcus aureus assessed as inhibition of biofilm formation measured after 15 to 18 hrs by crystal violet staining assay. It counts as functional, organism-based.
Assay [3] deals with Staphylococcus aureus. In words: Antibacterial activity against Staphylococcus aureus assessed as inhibition of bacterial invasion in HEK293T cells at 100 uM measured after 2 hrs by flow cytometry relative to control. On the set-up: scale not given: the % may be the effect or the level left. It counts as functional, HEK-293T. (In general: Flow cytometry measures light scatter and fluorescence of single cells or particles in a stream.)

Assay [4] relates to Staphylococcus aureus. Nature of the assay: Antibacterial activity against Staphylococcus aureus assessed as inhibition of bacterial invasion in HEK293T cells at 50 uM measured after 2 hrs by flow cytometry relative to control. The class given is functional, HEK-293T. On the set-up: scale not given: the % may be the effect or the level left.
For assay [5], the system named is Staphylococcus aureus. Nature of the assay: Antibacterial activity against Staphylococcus aureus assessed as inhibition of bacterial invasion in HEK293T cells at 12.5 uM measured after 2 hrs by flow cytometry relative to control. The class given is functional, HEK-293T. On the set-up: scale not given: the % may be the effect or the level left.
The subject of assay [6] is Staphylococcus aureus. Nature of the assay: Inhibition of Staphylococcus aureus sortase A assessed as reduction in SpA expression at 100 uM measured after overnight incubation by flow cytometry relative to control.
In assay [7] the test system is Staphylococcus aureus. In words: Antibiofilm activity against Staphylococcus aureus assessed as inhibition of biofilm formation measured after 15 to 18 hrs in the presence of quercetin by crystal violet staining assay. The class given is functional, organism-based.
Assay [8] has as its system Staphylococcus aureus. Nature of the assay: Antibacterial activity against Staphylococcus aureus assessed as inhibition of bacterial invasion in HEK293T cells at 6.25 uM measured after 2 hrs by flow cytometry relative to control. The class given is functional, HEK-293T. On the set-up: scale not given: the % may be the effect or the level left.
The test system of assay [9] is Staphylococcus aureus. Nature of the assay: Antibacterial activity against Staphylococcus aureus assessed as inhibition of bacterial invasion in HEK293T cells at 25 uM measured after 2 hrs by flow cytometry relative to control. It counts as functional, HEK-293T. On the set-up: scale not given: the % may be the effect or the level left.
The subject of assay [10] is Staphylococcus aureus. Nature of the assay: Binding affinity to staphylococcus aureus sortase A assessed as increase in molecular mass by LC-MS/MS analysis.
The test system of assay [11] is Staphylococcus aureus. Nature of the assay: Binding affinity to staphylococcus aureus sortase A assessed as covalent adduct formation by UPLC-TOF-MS analysis.
Assay [12] deals with Staphylococcus aureus. In words: Binding affinity to staphylococcus aureus sortase A assessed as covalent adduct formation at Cys184 by LC-MS/MS analysis.

As to `CC(C)CNC(=O)c1c(-c2ccc(/C(C#N)=C/c3ccc(Br)cc3)cc2)oc2ccc(Cl)cc12`, the pIC50 in [1] was 4.79.

Take `Cc1ccc(/C=C(\C#N)c2ccc(-c3oc4ccc(Cl)cc4c3C(=O)NCC(C)C)cc2)cc1`: the pIC50 in [1] was 4.33.

In the case of `CC(C)CNC(=O)c1c(-c2ccc(/C(C#N)=C/c3ccc(OCc4ccccc4)cc3)cc2)oc2ccccc12`, the pIC50 in [1] was 5.22.

Regarding `CC(C)CNC(=O)c1c(-c2ccc(/C(C#N)=C/c3ccc(Cl)cc3)cc2)oc2ccccc12`, the pIC50 in assay [1] was 5.01.

`COc1ccc(OC)c(/C=C(\C#N)c2ccc(-c3oc4c(OC)cccc4c3C(=O)NCC(C)C)cc2)c1` had a pIC50 in [1] of 4.28.

Regarding `CCc1ccc(/C=C(\C#N)c2ccc(-c3oc4c(OC)cccc4c3C(=O)NCC(C)C)cc2)cc1`, the negative logarithm of the IC50 (pIC50) in assay [1] was 4.31.

`CC(C)CNC(=O)c1c(-c2ccc(/C(C#N)=C/c3ccccc3)cc2)oc2ccc(Cl)cc12` gave a pIC50 in assay [1] of 4.52.

Molecule `Cc1ccc(/C=C(\C#N)c2ccc(-c3oc4ccccc4c3C(=O)NCC(C)C)cc2)cc1C` gave a pIC50 in assay [1] of 4.76.

Molecule `CCc1ccc(/C=C(\C#N)c2ccc(-c3oc4ccccc4c3C(=O)NCC(C)C)cc2)cc1` showed a pIC50 in assay [1] of 5.03.

Molecule `COc1ccc(/C=C(\C#N)c2ccc(-c3oc4ccccc4c3C(=O)NCC(C)C)cc2)cc1` showed a pIC50 in assay [1] of 4.92.

With `CC(C)CNC(=O)c1c(-c2ccc(C(C#N)Cc3ccc(O)cc3)cc2)oc2ccccc12` (stereo unspecified), the pIC50 in assay [1] was 5.10; in the assay with Staphylococcus aureus [2], 4.84. The Activity with Staphylococcus aureus [3] is recorded as 2.8%.

Take `CC(C)CNC(=O)c1c(-c2ccc(/C(C#N)=C/c3ccc(OCc4ccccc4)c(OCc4ccccc4)c3)cc2)oc2ccccc12`: the Activity in the assay with Staphylococcus aureus [4] was 19.1%; with Staphylococcus aureus [5] it was 7.4%; in the assay on Staphylococcus aureus [8], 2.9%; with Staphylococcus aureus [9], 16%; in the assay on Staphylococcus aureus [3] it was 24%. Further, the values for the pIC50 (in [1]; in the assay on Staphylococcus aureus [7]; in the assay with Staphylococcus aureus [2]) were 5.48, 5.68 and 5.68, respectively. In addition, in the assay with Staphylococcus aureus [6], the inhibition came to 26.5%.

In assay [1], `Cc1ccc(/C=C(\C#N)c2ccc(-c3oc4ccc(Cl)cc4c3C(=O)NCC(C)C)cc2)cc1C` gave a pIC50 of less than 4.00.

`COc1ccc(OC)c(/C=C(\C#N)c2ccc(-c3oc4ccc(Cl)cc4c3C(=O)NCC(C)C)cc2)c1` showed a pIC50 in [1] of 4.81.

Consider `CC(C)CNC(=O)c1c(-c2ccc(/C(C#N)=C/c3ccc(Br)cc3)cc2)oc2ccccc12`, for which the pIC50 in [1] is 4.72.

The molecule `COc1cccc2c(C(=O)NCC(C)C)c(-c3ccc(/C(C#N)=C/c4ccc(C)c(C)c4)cc3)oc12` showed a pIC50 in assay [1] of less than 4.00.

For the molecule `C=C(C#N)c1ccc(-c2oc3ccccc3c2C(=O)NCC(C)C)cc1`, in assay [1], the pIC50 is 4.82. Further, the Activity in the assay on Staphylococcus aureus [10] is 344 Da. Also, the result with Staphylococcus aureus [11] and in the assay on Staphylococcus aureus [12] was Active.

In turn, `CC(C)CNC(=O)c1c(-c2ccc(C(C#N)Cc3ccc(O)c(O)c3)cc2)oc2ccccc12` (stereo unspecified) gave a negative logarithm of the IC50 (pIC50) in assay [1] of 4.86.

`COc1ccc(/C=C(\C#N)c2ccc(-c3oc4c(OC)cccc4c3C(=O)NCC(C)C)cc2)cc1` had a pIC50 in [1] of 4.92.

In the case of `Cc1ccc(/C=C(\C#N)c2ccc(-c3oc4ccccc4c3C(=O)NCC(C)C)cc2)cc1`, the pIC50 in assay [1] was 4.85.

In assay [1], `COc1ccc(/C=C(\C#N)c2ccc(-c3oc4ccc(Cl)cc4c3C(=O)NCC(C)C)cc2)cc1` gave a pIC50 of 4.19.

`CC(C)CNC(=O)c1c(-c2ccc(/C(C#N)=C/c3ccc(F)cc3)cc2)oc2ccccc12` gave a pIC50 in assay [1] of 4.71.

On to `Cc1cc(C)c(/C=C(\C#N)c2ccc(-c3oc4ccc(Cl)cc4c3C(=O)NCC(C)C)cc2)c(C)c1`, for which, in assay [1], the pIC50 was 4.42.

Consider `COc1ccc(/C=C(\C#N)c2ccc(-c3oc4ccccc4c3C(=O)NCC(C)C)cc2)cc1OC`, for which, in assay [1], the negative logarithm of the IC50 (pIC50) is 5.02.

In assay [1], `CCc1ccc(/C=C(\C#N)c2ccc(-c3oc4ccc(Cl)cc4c3C(=O)NCC(C)C)cc2)cc1` gave a pIC50 of 4.86.

Molecule `COc1ccc(OC)c(/C=C(\C#N)c2ccc(-c3oc4ccccc4c3C(=O)NCC(C)C)cc2)c1` showed a pIC50 in [1] of 4.66.

Consider `CC(C)CNC(=O)c1c(-c2ccc(/C(C#N)=C/c3ccc(Cl)cc3)cc2)oc2ccc(Cl)cc12`, for which the pIC50 is 5.17 in [1] and 4.27 with Staphylococcus aureus [2]. Further, the Activity in the assay on Staphylococcus aureus [3] was determined as 4%.

Molecule `COc1cccc2c(C(=O)NCC(C)C)c(-c3ccc(/C(C#N)=C/c4ccc(Cl)cc4)cc3)oc12` had a pIC50 in assay [1] of 5.23.

In the case of `CC(C)CNC(=O)c1c(-c2ccc(C(C#N)Cc3ccc(OCc4ccccc4)cc3)cc2)oc2ccccc12` (stereo unspecified), the pIC50 in assay [1] is 4.82.

`CC(C)CNC(=O)c1c(-c2ccc(/C(C#N)=C/c3ccccc3C(=O)O)cc2)oc2ccccc12` gave a pIC50 in assay [1] of 5.01.

`Cc1cc(C)c(/C=C(\C#N)c2ccc(-c3oc4ccccc4c3C(=O)NCC(C)C)cc2)c(C)c1` had a pIC50 in assay [1] of 4.49.

As to `CC(C)CNC(=O)c1c(-c2ccc(/C(C#N)=C/c3ccc(C(F)(F)F)cc3)cc2)oc2ccccc12`, in assay [1], the pIC50 is 4.91.

Turning to `COc1cccc2c(C(=O)NCC(C)C)c(-c3ccc(/C(C#N)=C/c4ccccc4)cc3)oc12`, the pIC50 in [1] was 4.92.

In turn, `COc1ccc(/C=C(\C#N)c2ccc(-c3oc4c(OC)cccc4c3C(=O)NCC(C)C)cc2)cc1OC` had a pIC50 in assay [1] of 4.84.

As to `COc1ccc(/C=C(\C#N)c2ccc(-c3oc4ccc(Cl)cc4c3C(=O)NCC(C)C)cc2)cc1OC`, the pIC50 in assay [1] is 4.31.

For the molecule `COc1cccc2c(C(=O)NCC(C)C)c(-c3ccc(/C(C#N)=C/c4ccccc4C(=O)O)cc3)oc12`, in assay [1], the pIC50 is 4.55.

Consider `CC(C)CNC(=O)c1c(-c2ccc(/C(C#N)=C/c3ccccc3)cc2)oc2ccccc12`, for which the pIC50 in assay [1] was 5.06; with Staphylococcus aureus [2], 4.71. The Activity with Staphylococcus aureus [3] was 17.9%.

In assay [1], `COc1cccc2c(C(=O)NCC(C)C)c(-c3ccc(/C(C#N)=C/c4ccc(Br)cc4)cc3)oc12` had a pIC50 of 4.81.

In assay [1], `COc1cccc2c(C(=O)NCC(C)C)c(-c3ccc(/C(C#N)=C/c4ccc(C)cc4)cc3)oc12` had a pIC50 of 5.00.
